Test results reported in the supplement of paper PMC11665569.

Columns and labels:
SW1573 = test: relative viability (fraction of vehicle control); higher = more viable / less inhibited; details: treatment time: 5 days
Description: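 CCK-8 viability of SW1573 cells transfected with control, YAP/TAZ or TEAD1-4 siRNAs and treated with KRAS G12C inhibitors for 5 days. Values are normalised to vehicle control.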

KYSE410 = test: as above; details: treatment time: 5 days
Description: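 CCK-8 viability of KYSE410 cells transfected with control, YAP/TAZ or TEAD1-4 siRNAs and treated with KRAS G12C inhibitors for 5 days. Values are normalised to vehicle control.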

C=CC(=O)N1CCN(c2ncnc3c(F)c(-c4c(O)cccc4F)c(Cl)cc23)CC1 [ARS1620]
relative viability
Details | KYSE410 | SW1573
log10 concentration (uM): 0, siRNA knockdown: TEAD1-4 siRNA 1 | 0.606 | –
log10 concentration (uM): 0, siRNA knockdown: TEAD1-4 siRNA 2 | 0.433 | –
log10 concentration (uM): 0, siRNA knockdown: YAP/TAZ siRNA 1 | 0.792 | –
log10 concentration (uM): 0, siRNA knockdown: YAP/TAZ siRNA 2 | 0.59 | –
log10 concentration (uM): 0, siRNA knockdown: negative control siRNA | 0.869 | –
log10 concentration (uM): 0.39794, siRNA knockdown: TEAD1-4 siRNA 1 | 0.338 | –
log10 concentration (uM): 0.39794, siRNA knockdown: TEAD1-4 siRNA 2 | 0.315 | –
log10 concentration (uM): 0.39794, siRNA knockdown: YAP/TAZ siRNA 1 | 0.438 | –
log10 concentration (uM): 0.39794, siRNA knockdown: YAP/TAZ siRNA 2 | 0.428 | –
log10 concentration (uM): 0.39794, siRNA knockdown: negative control siRNA | 0.754 | –
log10 concentration (uM): 0.69897, siRNA knockdown: TEAD1-4 siRNA 1 | 0.25 | –
log10 concentration (uM): 0.69897, siRNA knockdown: TEAD1-4 siRNA 2 | 0.194 | –
log10 concentration (uM): 0.69897, siRNA knockdown: YAP/TAZ siRNA 1 | 0.3 | –
log10 concentration (uM): 0.69897, siRNA knockdown: YAP/TAZ siRNA 2 | 0.288 | –
log10 concentration (uM): 0.69897, siRNA knockdown: negative control siRNA | 0.556 | –
log10 concentration (uM): 1, siRNA knockdown: TEAD1-4 siRNA 1 | 0.106 | –
log10 concentration (uM): 1, siRNA knockdown: TEAD1-4 siRNA 2 | 0.0618 | –
log10 concentration (uM): 1, siRNA knockdown: YAP/TAZ siRNA 1 | 0.123 | –
log10 concentration (uM): 1, siRNA knockdown: YAP/TAZ siRNA 2 | 0.104 | –
log10 concentration (uM): 1, siRNA knockdown: negative control siRNA | 0.198 | –
log10 concentration (uM): 1.301029996, siRNA knockdown: TEAD1-4 siRNA 1 | 0.0328 | –
log10 concentration (uM): 1.301029996, siRNA knockdown: TEAD1-4 siRNA 2 | 0.0272 | –
log10 concentration (uM): 1.301029996, siRNA knockdown: YAP/TAZ siRNA 1 | 0.0271 | –
log10 concentration (uM): 1.301029996, siRNA knockdown: YAP/TAZ siRNA 2 | 0.0298 | –
log10 concentration (uM): 1.301029996, siRNA knockdown: negative control siRNA | 0.0407 | –
log10 concentration (uM): -0.30103, siRNA knockdown: TEAD1-4 siRNA 1 | 0.826 | –
log10 concentration (uM): -0.30103, siRNA knockdown: TEAD1-4 siRNA 2 | 0.769 | –
log10 concentration (uM): -0.30103, siRNA knockdown: YAP/TAZ siRNA 1 | 0.897 | –
log10 concentration (uM): -0.30103, siRNA knockdown: YAP/TAZ siRNA 2 | 0.7891 | –
log10 concentration (uM): -0.30103, siRNA knockdown: negative control siRNA | 0.938 | –
log10 concentration (uM): -0.60206, siRNA knockdown: TEAD1-4 siRNA 1 | 0.943 | 0.655
log10 concentration (uM): -0.60206, siRNA knockdown: TEAD1-4 siRNA 2 | 0.725 | 0.614
log10 concentration (uM): -0.60206, siRNA knockdown: YAP/TAZ siRNA 1 | 0.964 | 0.29
log10 concentration (uM): -0.60206, siRNA knockdown: YAP/TAZ siRNA 2 | 0.86 | 0.306
log10 concentration (uM): -0.60206, siRNA knockdown: negative control siRNA | 0.916 | 0.964
log10 concentration (uM): -1, siRNA knockdown: TEAD1-4 siRNA 1 | 0.909 | 0.683
log10 concentration (uM): -1, siRNA knockdown: TEAD1-4 siRNA 2 | 0.779 | 0.614
log10 concentration (uM): -1, siRNA knockdown: YAP/TAZ siRNA 1 | 0.959 | 0.41
log10 concentration (uM): -1, siRNA knockdown: YAP/TAZ siRNA 2 | 0.883 | 0.417
log10 concentration (uM): -1, siRNA knockdown: negative control siRNA | 0.976 | 0.976
log10 concentration (uM): -2, siRNA knockdown: TEAD1-4 siRNA 1 | 0.981 | 0.9354
log10 concentration (uM): -2, siRNA knockdown: TEAD1-4 siRNA 2 | 0.876 | 1.01
log10 concentration (uM): -2, siRNA knockdown: YAP/TAZ siRNA 1 | 0.988 | 0.817
log10 concentration (uM): -2, siRNA knockdown: YAP/TAZ siRNA 2 | 0.996 | 0.82
log10 concentration (uM): -2, siRNA knockdown: negative control siRNA | 0.9803 | 1.02
